≈ marks a conversion by molar mass, not a printed value.
Assay: Solubility of emodepside in water
Assay type: physicochemical
Details: range of pH 4-10

SMILES: CC(C)CC1C(=O)OC(Cc2ccc(N3CCOCC3)cc2)C(=O)N(C)C(CC(C)C)C(=O)OC(C)C(=O)N(C)C(CC(C)C)C(=O)OC(Cc2ccc(N3CCOCC3)cc2)C(=O)N(C)C(CC(C)C)C(=O)OC(C)C(=O)N1C [Emodepside, cyclo[(R)-lactoyl-N-methyl-1-leucyl-(R)-3-(p-morpholinophenyl)lactoyl-N-methyl-1-leucyl-(R)-lactoyl-N-methyl-1-leucyl-(R)-3-(p-morpholinophenyl)lactoyl-N-methyl-1-leucyl]
- solubility: 5 to 7 µg/mL (≈ 4.47 to 6.25 µM)
